In US8716326B2, “Isoindolinone derivatives, preparation method thereof and a pharmaceutical composition comprising same” (Korea Research Institute of Chemical Technology, priority 2009, dated 2014):

Experiments:
Runx2 = Runx2 activity, 6xOSE2-Luc luciferase reporter in transfected C2C12 cells; type: cell-based, Mouse; conditions: Mus musculus, 24 hrs, read-out: luciferase activity relative to control set as 1
Outline: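 Compound exposure of 24 h at 2.5, 5.0, 10 and 20 μM, in 5% FBS DMEM, was applied to transfected C2C12 cells with an OSE2 hexamer-driven luciferase construct reporting Runx2 activity. Read-out: dual-luciferase signal in cell lysates, normalised to equal-volume DMSO control (=1).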

mice calvarias = experiment: Mice calvarias loss inhibition, bone loss induced by interleukin-1 in vivo; conditions: IL-1 collagen sponge, 0.2 mg per mouse intraperitoneally, 7 days, vs vehicle
Method: Specifically, 5 to 7 ml of collagen (Cellmatrix type I-A; Wako co., Japan, Cat. No. 637-00653) was poured into petri dish (60×15 mm), and lyophlilized. The lyophlilized collagen sponge was made to the desired size which is appropriate to be implanted, and in order to induce local bone loss of mice, interleukin-1 (Peprotech; London, GB) was diluted with phosphate-buffered-saline solution to 2 μg per one mouse to be treated onto collagen sponge. The collagen sponge treated with interleukin-1 was contacted to the surface of mice carvarias through mice scalp incision, was implanted to 5 mice (5-week-male, ICR strain) in the test group and the control group, respectively, and was sutured. 7 days later, the mice were sacrificed to obtain calvarias. The test group was intraperitoneally injected with the dose of 0.2 mg of the compound obtained in Example 8 per one mouse from the next day of surgery to the day before the sacrifice. The control group was intraperitoneally injected with 100 μl of DMSO. After 7 days, the mice were sacrificed, and the extracted calvarias were washed 3-4 times with phosphate-buffered-saline solution and fixed in 4% paraformaldehyde for 24 hrs. Micro-computed tomography scan (SMX-90CT; Shimadzu, Japan) was performed for the fixed mice calvarias and 3-dimensional image thereof was obtained.
Further, bone mineral content (BMC) was measured by using TRI 3D-BON (RATOC system Engineering Co., Tokyo, Japan) based on the 3-dimensional image (see Volume Graphics, VG studio Max 1.2.1).
Histological studies were conducted in order to investigate the number of osteoclastic cells directly relating to bone loss. Specifically, the calvarias were decalcificated (solution was replaced every 2-3 days) with 12% EDTA (pH 7.2-7.4) for 14 days and embedded in paraffin. TRAP staining (Sigma-Aldrich) was performed on the embedded whole calvarias.
In addition, the whole area of osteoclast which is red-stained, that is, TRAP-positive was shown in graph by using image J program.
The procedure of the Experimental Example 3 was repeated except for using the compound obtained in Example 94 instead of the compound obtained in Example 8, to examine the effect on mice calvarias loss inhibition.
Histological studies were conducted in order to investigate the number of osteoclastic cells directly relating to bone loss. Specifically, the calvarias were decalcificated (solution was replaced every 2-3 days) with 12% EDTA (pH 7.2-7.4) for 14 days and embedded in paraffin.
H-E (Hematotoxin-eosin) and TRAP staining (Sigma-Aldrich) were performed on the embedded whole calvarias. The results are given in FIGS. 4b and 4c, respectively. In addition, the whole area of osteoclast of the test and control group was shown in graph by using image J program.

rats calvarias = experiment: Bone formation in rats calvarias loss site in vivo; conditions: 8 mm calvarias hole, collagen sponge with 0.2 mg compound, vs control
Method: To investigate the effect of the amide compound according to the present invention on bone formation, bone formation ability of the said compound in the rats calvarias loss site was examined in vivo by using the compounds obtained in Example 8 and 27.
Specifically, the hole of the diameter of 8 mm was made in calavarias of rats by using trephine bur, and the collagen sponge prepared in Experimental Example 3 treated with 0.2 mg of the compound obtained in Example 8 in 15 μl of DMSO was placed at the site of loss. As a control group, the collagen sponge treated with only 100 μl of DMSO was treated at the site of loss. After 6 days from the suture of the calvarias scalp, the rats were sacrificed to obtain calvarias. Micro-computed tomography scan (SMX-90CT; Shimadzu, Japan) was performed and 3-dimensional image thereof was obtained.
Further, bone mineral content (BMC) of the test and control group was measured by using TRI 3D-BON (RATOC system Engineering Co., Tokyo, JP) based on the 3-dimensional image (see, Volume Graphics, VG studio Max 1.2.1). […]
Further, bone mineral content (BMC) of the test and control group was measured by using TRI 3D-BON (RATOC system Engineering Co., Tokyo, JP) based on the 3-dimensional image.

SMILES: COc1cc2c(c(-c3cncnc3)c1OC)CN(Cc1ccc(C(=O)Nc3ccccc3N)cc1)C2=O [Example 8, N-(2-aminophenyl)-4-((5,6-dimethoxy-1-oxo-4-(pyrimidin-5-yl)isoindolin-2-yl)methyl)benzamide]
- fold induction at 2.5 µM (Runx2; 2.5 μM): 28.5
- fold induction at 5 µM (Runx2; 5.0 μM): 33.4
- fold induction at 10 µM (Runx2; 10 μM): 36
- fold induction at 20 µM (Runx2; 20 μM): 30.1
- bone loss in calvarias (micro-computed tomography) (mice calvarias): suppressed
- osteoclast (TRAP-positive area) (mice calvarias): remarkably reduced
- whole bone mineral content (BMC) (mice calvarias): increased
- BMC (bone content) (rats calvarias): unexpectedly increased
